ChEMBL document CHEMBL4765390, “Discovery of carboxyl-containing biaryl ureas as potent RORγt inverse agonists” (Eur J Med Chem, 2020)
Converted amounts (≈) assume the structure as drawn.

Assays:
[1] = molecular target: T1, Nuclear receptor ROR-gamma (Homo sapiens, UniProt P51449); experiment: Inverse agonist activity at human RORgammat assessed as inhibition of N-terminal biotinylated co-activator SRC1 recruitment measured after 60 mins by FRET assay
T1 sequence (P51449 whole entry): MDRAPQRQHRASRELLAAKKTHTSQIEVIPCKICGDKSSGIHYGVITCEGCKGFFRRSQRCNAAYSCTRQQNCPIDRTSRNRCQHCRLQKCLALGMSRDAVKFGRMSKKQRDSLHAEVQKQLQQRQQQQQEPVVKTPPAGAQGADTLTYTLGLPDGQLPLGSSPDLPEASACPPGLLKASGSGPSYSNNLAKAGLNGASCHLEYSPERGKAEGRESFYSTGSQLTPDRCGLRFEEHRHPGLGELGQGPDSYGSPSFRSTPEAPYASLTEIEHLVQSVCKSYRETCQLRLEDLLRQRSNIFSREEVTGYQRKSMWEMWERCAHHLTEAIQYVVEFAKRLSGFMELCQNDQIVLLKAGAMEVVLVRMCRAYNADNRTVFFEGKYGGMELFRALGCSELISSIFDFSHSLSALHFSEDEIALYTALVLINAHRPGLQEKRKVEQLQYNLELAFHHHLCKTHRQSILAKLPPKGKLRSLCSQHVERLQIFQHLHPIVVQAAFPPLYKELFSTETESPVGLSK

[2] = Volume of distribution at steady state in CD-1 mouse at 1 mg/kg, iv administered as single dose measured after 24 hrs by LC-MS/MS analysis; type: ADME, organism-based; settings: in vivo, read-out: Vdss
[3] = Cmax in CD-1 mouse at 5 mg/kg, po administered as single dose measured after 24 hrs by LC-MS/MS analysis; type: ADME, organism-based; parameters: route oral, time 24 hrs, dose 5 mg/kg; settings: in vivo
[4] = Clearance in CD-1 mouse at 1 mg/kg, iv administered as single dose measured after 24 hrs by LC-MS/MS analysis; type: ADME, organism-based; settings: in vivo
[5] = Aqueous kinetic solubility of the compound at pH 7.4 PBS buffer at 100 uM incubated for 120 mins by LC-MS/MS analysis; type: physicochemical; settings: read-out: Kinetic_solubility
[6] = AUC (0 to last) in CD-1 mouse at 1 mg/kg, iv administered as single dose measured after 24 hrs by LC-MS/MS analysis; type: ADME, organism-based; parameters: route intravenous, dose 1 mg/kg, time 24 hrs; settings: in vivo
[7] = Half life in CD-1 mouse at 1 mg/kg, iv administered as single dose measured after 24 hrs by LC-MS/MS analysis; type: ADME, organism-based; settings: in vivo
[8] = AUC (0 to last) in CD-1 mouse at 5 mg/kg, po administered as single dose measured after 24 hrs by LC-MS/MS analysis; type: ADME, organism-based; parameters: route oral, dose 5 mg/kg, time 24 hrs; settings: in vivo
[9] = Cmax in CD-1 mouse at 1 mg/kg, iv administered as single dose measured after 24 hrs by LC-MS/MS analysis; type: ADME, organism-based; parameters: route intravenous, time 24 hrs, dose 1 mg/kg; settings: in vivo
[10] = molecular target: T2, Nuclear receptor ROR-beta (Homo sapiens, UniProt Q92753); experiment: Inverse agonist activity at ROR-beta (unknown origin) expressed in HEK293 cells by Gal4-luciferase reporter assay; type: cell-based
T2 sequence (Q92753 whole entry): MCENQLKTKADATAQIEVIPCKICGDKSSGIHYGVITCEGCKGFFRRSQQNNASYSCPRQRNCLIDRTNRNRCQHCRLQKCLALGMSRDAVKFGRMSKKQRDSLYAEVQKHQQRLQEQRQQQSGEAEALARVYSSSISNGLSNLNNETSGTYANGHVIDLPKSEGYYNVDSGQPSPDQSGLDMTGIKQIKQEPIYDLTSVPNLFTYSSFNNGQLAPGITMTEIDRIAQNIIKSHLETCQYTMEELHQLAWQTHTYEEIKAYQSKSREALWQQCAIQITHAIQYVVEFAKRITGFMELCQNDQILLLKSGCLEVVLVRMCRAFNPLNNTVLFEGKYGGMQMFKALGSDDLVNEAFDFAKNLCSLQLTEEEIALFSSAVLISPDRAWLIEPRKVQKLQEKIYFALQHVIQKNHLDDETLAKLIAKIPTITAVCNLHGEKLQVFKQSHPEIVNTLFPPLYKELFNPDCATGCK

[11] = Oral bioavailability in CD-1 mouse at 5 mg/kg administered as single dose measured after 24 hrs by LC-MS/MS analysis; type: ADME, organism-based; settings: in vivo
[12] = molecular target: T3, Nuclear receptor ROR-alpha (Homo sapiens, UniProt P35398); experiment: Inverse agonist activity at ROR-alpha (unknown origin) expressed in HEK293 cells by Gal4-luciferase reporter assay; type: cell-based
T3 sequence (P35398 whole entry): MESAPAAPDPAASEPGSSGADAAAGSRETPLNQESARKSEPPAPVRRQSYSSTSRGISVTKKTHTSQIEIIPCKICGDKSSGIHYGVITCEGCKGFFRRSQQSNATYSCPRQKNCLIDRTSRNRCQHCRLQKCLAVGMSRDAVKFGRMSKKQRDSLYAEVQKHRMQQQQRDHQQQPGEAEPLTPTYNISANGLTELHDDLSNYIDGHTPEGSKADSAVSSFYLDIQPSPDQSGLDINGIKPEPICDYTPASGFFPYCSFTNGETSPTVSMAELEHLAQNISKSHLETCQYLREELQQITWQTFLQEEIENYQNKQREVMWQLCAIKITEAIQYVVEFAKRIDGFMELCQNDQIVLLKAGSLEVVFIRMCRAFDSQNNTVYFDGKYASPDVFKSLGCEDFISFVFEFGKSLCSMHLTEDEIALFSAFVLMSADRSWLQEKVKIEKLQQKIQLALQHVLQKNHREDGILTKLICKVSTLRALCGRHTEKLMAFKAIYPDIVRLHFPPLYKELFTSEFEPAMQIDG

[13] = Tmax in CD-1 mouse at 5 mg/kg, po administered as single dose measured after 24 hrs by LC-MS/MS analysis; type: ADME, organism-based; settings: in vivo
[14] = Half life in CD-1 mouse at 5 mg/kg, po administered as single dose measured after 24 hrs by LC-MS/MS analysis; type: ADME, organism-based; settings: in vivo

SMILES | IC50 [1] | also measured
CC(C(=O)O)c1ccc(CNC(=O)Nc2cc(Cl)c(-c3ccccc3OC(F)(F)F)c(Cl)c2)nc1 (configuration not stated) | 1780 nM | 
O=C(NCc1ccc(C(O)CO)cc1)Nc1cc(Cl)c(-c2ccccc2OC(F)(F)F)c(Cl)c1 (configuration not stated) | 584 nM | 
O=C(O)Cc1ccc(CNC(=O)Nc2cc(F)c(-c3ccccc3OC(F)(F)F)c(F)c2)nc1 | 996 nM | 
Cc1cc(CC(=O)O)ccc1CNC(=O)Nc1cc(Cl)c(-c2ccccc2OC(F)(F)F)c(Cl)c1 | 398 nM | 
CCS(=O)(=O)c1ccc(CCOc2cc(Cl)c(-c3ccccc3OC(F)(F)F)c(Cl)c2)cc1 | 426 nM | 
O=C(NCc1ccc(C(=O)O)cc1)Nc1cc(Cl)c(-c2ccccc2OC(F)(F)F)c(Cl)c1 | 1100 nM | 
O=C(O)CCc1ccc(CNC(=O)Nc2cc(Cl)c(-c3ccccc3OC(F)(F)F)c(Cl)c2)cc1 | 841 nM | 
CCS(=O)(=O)c1ccc(COCc2cc(Cl)c(-c3ccccc3OC(F)(F)F)c(Cl)c2)cc1 | 4410 nM | 
CC(C(=O)O)c1ccc(CNC(=O)Nc2cc(Cl)c(-c3ccccc3OC(F)(F)F)c(Cl)c2)cc1 (configuration not stated) | 541 nM | 
Cc1cc(CNC(=O)Nc2cc(Cl)c(-c3ccccc3OC(F)(F)F)c(Cl)c2)ccc1CC(=O)O | 995 nM | 
O=C(O)Cc1ccc(CNC(=O)Nc2cc(Cl)c(-c3ccccc3OC(F)(F)F)c(Cl)c2)cc1 |  | Vd [2]: 1.78 L/kg; Cmax [3]: 609 ng/mL; clearance [4]: 13.1 mL/min/kg; solubility kinetic at 2 h, 100 µM [5]: 84 µg/mL (≈ 164 µM); AUC(0-t) at 24 h [6]: 1270 ng·h/mL; half-life [7]: 3.04 h; AUC(0-t) at 24 h [8]: 2410 ng·h/mL; Cmax [9]: 1550 ng/mL; IC50 [10]: > 10000 nM; bioavailability [11]: 38.1%; IC50 [12]: > 10000 nM; Tmax [13]: 1 h; half-life [14]: 3.63 h
Cc1cc(NC(=O)NCc2ccc(CC(=O)O)cn2)cc(C)c1-c1ccccc1OC(F)F | 345 nM | 
CC(C(=O)O)c1ccc(CNC(=O)Nc2cc(Cl)c(-c3ccccc3OC(F)(F)F)c(C#N)c2)cc1 (configuration not stated) | 334 nM | 
O=C(NCc1ccc(C(O)C(=O)O)cc1)Nc1cc(Cl)c(-c2ccccc2OC(F)(F)F)c(Cl)c1 (configuration not stated) | 278 nM | 
CCS(=O)(=O)c1ccc(CC(=O)Nc2cc(Cl)c(-c3ccccc3OC(F)(F)F)c(Cl)c2)cc1 |  | solubility kinetic at 2 h, 100 µM [5]: 1.25 µg/mL (≈ 2.35 µM)
O=C(O)Cc1ccc(CNC(=O)Nc2ccc(-c3ccccc3)cc2)cc1 | > 30000 nM | 

Second part, led by results:

IC50 [1] | SMILES | also measured
99 nM | CCS(=O)(=O)c1ccc(OCC(=O)Nc2cc(Cl)c(-c3ccccc3OC(F)(F)F)c(Cl)c2)cc1 | 
112 nM | CCS(=O)(=O)c1ccc(CNC(=O)c2cc(Cl)c(-c3ccccc3OC(F)(F)F)c(Cl)c2)cc1 | 
124 nM | O=C(NCc1ccc(C(F)C(=O)O)cc1)Nc1cc(Cl)c(-c2ccccc2OC(F)(F)F)c(Cl)c1 (configuration not stated) | 
200 nM | CCS(=N)(=O)c1ccc(CNC(=O)Nc2cc(Cl)c(-c3ccccc3OC(F)(F)F)c(Cl)c2)cc1 (configuration not stated) | 
21.6 nM | CCS(=O)(=O)c1ccc(CCNc2cc(Cl)c(-c3ccccc3OC(F)(F)F)c(Cl)c2)cc1 | 
276 nM | NS(=O)(=O)c1ccc(CNC(=O)Nc2cc(Cl)c(-c3ccccc3OC(F)(F)F)c(Cl)c2)cc1 | 
99.8 nM | CNS(=O)(=O)c1ccc(CNC(=O)Nc2cc(Cl)c(-c3ccccc3OC(F)(F)F)c(Cl)c2)cc1 | 
69 nM | CS(=O)(=O)c1ccc(CNC(=O)Nc2cc(Cl)c(-c3ccccc3OC(F)(F)F)c(Cl)c2)cc1 | 
138 nM | CC(=O)NS(=O)(=O)c1ccc(CNC(=O)Nc2cc(Cl)c(-c3ccccc3OC(F)(F)F)c(Cl)c2)cc1 | 
